According to ChEMBL document CHEMBL4368885, “Quinolone-isoniazid hybrids: synthesis and preliminary in vitro cytotoxicity and anti-tuberculosis evaluation” (Medchemcomm, 2019):
In brackets after ≈: the same amount, converted by molar mass.

Assays:
[1] = Cytotoxicity against human HeLa cells assessed as cell viability at 20 uM after 24 hrs by resazurin dye-based fluorescence assay relative to control; settings: read-out: Activity
[2] = system: Mycobacterium tuberculosis; test: microbe, parasite or virus in culture; settings: H37Rv
Description: Antitubercular activity against Mycobacterium tuberculosis H37Rv after 7 to 14 days by broth micro dilution method

[3] = Hepatic extraction ratio in pooled human liver microsomes at 1 uM by LC-MS/MS analysis; type: ADME, Microsome; settings: read-out: ERH
[4] = Half life in mouse liver microsomes at 1 uM by LC-MS/MS analysis; type: ADME, Microsome
[5] = Hepatic extraction ratio in mouse liver microsomes at 1 uM by LC-MS/MS analysis; type: ADME, Microsome; settings: read-out: ERH
[6] = Metabolic stability in mouse liver microsomes assessed as percentage of compound remaining at 1 uM by LC-MS/MS analysis; type: ADME, Microsome; settings: read-out: Stability
[7] = Hepatic extraction ratio in rat liver microsomes at 1 uM by LC-MS/MS analysis; type: ADME, Microsome; settings: read-out: ERH
[8] = Half life in pooled human liver microsomes at 1 uM by LC-MS/MS analysis; type: ADME, Microsome
[9] = Intrinsic clearance in pooled human liver microsomes assessed per mg protein at 1 uM by LC-MS/MS analysis; type: ADME, Microsome
[10] = Intrinsic clearance in mouse liver microsomes assessed per mg protein at 1 uM by LC-MS/MS analysis; type: ADME, Microsome
[11] = Half life in rat liver microsomes at 1 uM by LC-MS/MS analysis; type: ADME, Microsome
[12] = Metabolic stability in rat liver microsomes assessed as percentage of compound remaining at 1 uM by LC-MS/MS analysis; type: ADME, Microsome; settings: read-out: Stability
[13] = Aqueous solubility in pH 6.5 PBS at 10 to 220 uM after 20 hrs by nephelometric analysis; type: physicochemical
[14] = Metabolic stability in pooled human liver microsomes assessed as percentage of compound remaining at 1 uM by LC-MS/MS analysis; type: ADME, Microsome; settings: read-out: Stability
[15] = Intrinsic clearance in rat liver microsomes assessed per mg protein at 1 uM by LC-MS/MS analysis; type: ADME, Microsome
[16] = system: HeLa; test: Cytotoxicity against human HeLa cells assessed as reduction in cell viability after 24 hrs by resazurin dye-based fluorescence assay

Compound | viability at 24 h, 20 µM [1] [%] | MIC90 [2] [µM] | other results
C/C(=N\NC(=O)c1ccncc1)c1ccc2c(c1)c(=O)c(C(=O)NCCNCCO)cn2Cc1ccccc1 | < 75 | 2 (≈ 1.05 µg/mL) | –
CCOC(=O)c1cn(CC)c2ccc(/C(C)=N/NC(=O)c3ccncc3)cc2c1=O | < 75 | 0.2 (≈ 0.0813 µg/mL) | –
C/C(=N\NC(=O)c1ccncc1)c1ccc2c(c1)c(=O)c(C(=O)NCCNCCO)cn2Cc1ccc(C(F)(F)F)cc1 | < 75 | 1.8 (≈ 1.07 µg/mL) | –
CCn1cc(C(=O)NCCOC)c(=O)c2cc(/C(C)=N/NC(=O)c3ccncc3)ccc21 | < 75 | 0.8 (≈ 0.348 µg/mL) | hepatic extraction ratio at 1 µM [3]: < 0.42; half-life at 1 µM [4]: 1.33 h; hepatic extraction ratio at 1 µM [5]: < 0.49; remaining at 1 µM [6]: 77%; hepatic extraction ratio at 1 µM [7]: < 0.3; half-life at 1 µM [8]: > 2.5 h; CLH [9]: 13.3 µg/min; CLH [10]: 35.3 µg/min; half-life at 1 µM [11]: > 2.5 h; remaining at 1 µM [12]: 87%; solubility kinetic at 20 h [13]: 95 µM (≈ 41.4 µg/mL); remaining at 1 µM [14]: 90.6%; CLH [15]: 18.7 µg/min
CCOC(=O)c1cn(C)c2ccc(/C(C)=N/NC(=O)c3ccncc3)cc2c1=O | < 75 | 0.9 (≈ 0.353 µg/mL) | –
CC(=O)c1ccc2c(c1)c(=O)c(C(=O)NCCNCCO)cn2Cc1ccc(Cl)cc1Cl | < 75 | 125 (≈ 59.5 µg/mL) | –
CO[C@H]1/C=C/O[C@@]2(C)Oc3c(C)c(O)c4c(O)c(c(/C=N/N5CCN(C)CC5)c(O)c4c3C2=O)NC(=O)/C(C)=C\C=C\[C@H](C)[C@H](O)[C@@H](C)[C@@H](O)[C@@H](C)[C@H](OC(C)=O)[C@@H]1C [RIFAMPIN] | – | 0.06 (≈ 0.0494 µg/mL) | –
NNC(=O)c1ccncc1 [ISONIAZID] | – | 0.2 (≈ 0.0274 µg/mL) | –
C/C(=N\NC(=O)c1ccncc1)c1ccc2c(c1)c(=O)c(C(=O)NCCNCCO)cn2Cc1ccc(Br)cc1 | < 75 | 0.8 (≈ 0.484 µg/mL) | –
COCCNC(=O)c1cn(Cc2ccc(Cl)cc2Cl)c2ccc(/C(C)=N/NC(=O)c3ccncc3)cc2c1=O | < 75 | 4.8 (≈ 2.72 µg/mL) | –
COCCNC(=O)c1cn(Cc2ccccc2)c2ccc(C(C)=O)cc2c1=O | < 75 | 43.4 (≈ 16.4 µg/mL) | –
CC[C@H]1CN2CCc3cc(OC)c(OC)cc3[C@@H]2C[C@@H]1C[C@H]1NCCc2cc(OC)c(OC)cc21 [EMETINE] | – | – | IC50 [16]: 15 nM
C/C(=N\NC(=O)c1ccncc1)c1ccc2c(c1)c(=O)c(C(=O)NCCOCCO)cn2Cc1ccc(Br)cc1 | < 75 | 2.7 (≈ 1.64 µg/mL) | –
CCn1cc(C(=O)NCCCn2ccnc2)c(=O)c2cc(/C(C)=N/NC(=O)c3ccncc3)ccc21 | < 75 | 7.8 (≈ 3.79 µg/mL) | –
